Assay: xn = mol fraction of the nth substance listed
Conditions: 92.3 kPa, Liquid; for viscosity: Concentric cylinders viscometry; for speed of sound: Frequency=3 MHz, Single path-length method; for mass density: Vibrating tube method

OCCOCCOCCO [triethylene glycol] + O
Conditions	mass density, 293.15 K [kg/m3]	mass density, 298.15 K [kg/m3]	speed of sound, 293.15 K [m/s]	speed of sound, 298.15 K [m/s]	viscosity, 293.15 K [mPa·s]	viscosity, 298.15 K [mPa·s]
x1 = 0.0101	1009.83	1008.38	1526.7	1537.4	–	–
x1 = 0.0196	1019.71	1017.88	1563.3	1571	–	–
x1 = 0.025	1024.91	1023.1	–	–	1.881	1.524
x1 = 0.029	1028.88	1027.04	1595.7	1600.5	–	–
x1 = 0.0381	1036.74	1034.7	1622.5	1625	–	–
x1 = 0.0489	1044.89	1042.58	–	–	2.921	2.329
x1 = 0.0496	1045.76	1043.48	1651.6	1651.4	–	–
x1 = 0.0601	1053.18	1050.7	1673.8	1671.4	–	–
x1 = 0.0689	1058.69	1056.05	1689	1685.1	–	–
x1 = 0.0754	1062.23	1059.51	–	–	4.368	3.456
x1 = 0.0801	1065	1062.2	1704.9	1699.4	–	–
x1 = 0.0905	1070.23	1067.29	1716.5	1709.8	–	–
x1 = 0.0993	1074.35	1071.33	–	–	5.989	4.677
x1 = 0.0996	1074.38	1071.33	1724.7	1716.9	–	–
x1 = 0.1479	1090.64	1087.21	1744.5	1733.4	–	–
x1 = 0.15	1091.94	1088.51	–	–	10.19	7.813
x1 = 0.1993	1101.82	1098.18	–	–	14.46	11.2
x1 = 0.2004	1101.27	1097.63	1742	1729.3	–	–
x1 = 0.2462	1107.12	1103.39	1732.1	1718.8	–	–
x1 = 0.2526	1107.94	1104.19	–	–	19.41	14.94
x1 = 0.2998	1111.26	1107.47	–	–	23.57	18.09
x1 = 0.3004	1111.57	1107.79	1718.2	1704.4	–	–
x1 = 0.3474	1114.22	1110.41	1706.1	1692.1	–	–
x1 = 0.3539	1113.94	1110.13	–	–	27.83	21.31
x1 = 0.3948	1116.15	1112.33	1694.8	1680.7	–	–
x1 = 0.4009	1115.83	1112.01	–	–	31.2	23.85
x1 = 0.4467	1117.71	1113.88	1683.9	1669.6	–	–
x1 = 0.4492	1117.53	1113.7	–	–	34.1	26.05
x1 = 0.4992	1119.04	1115.2	–	–	36.67	28.01
x1 = 0.5021	1118.97	1115.13	1673.6	1659.2	–	–
x1 = 0.548	1119.77	1115.93	1666.3	1651.9	–	–
x1 = 0.5484	1120.2	1116.36	–	–	38.84	29.68
x1 = 0.5923	1120.43	1116.59	1660	1645.4	–	–
x1 = 0.5996	1121.03	1117.17	–	–	40.64	31.06
x1 = 0.6442	1121.04	1117.19	1653.7	1639.1	–	–
x1 = 0.6506	1121.46	1117.6	–	–	42.15	32.21
x1 = 0.701	1121.62	1117.76	–	–	43.67	33.32
x1 = 0.7095	1121.66	1117.81	1647	1632.3	–	–
x1 = 0.7531	1122.03	1118.17	1642.9	1628.1	–	–
x1 = 0.7567	1121.7	1117.85	–	–	44.87	34.32
x1 = 0.7859	1122.28	1118.42	1640.2	1625.3	–	–
x1 = 0.8035	1121.91	1118.05	–	–	45.73	34.99
x1 = 0.8387	1122.62	1118.75	1636.5	1621.5	–	–
x1 = 0.8406	1122.25	1118.38	–	–	46.36	35.51
x1 = 0.8981	1123.02	1119.14	–	–	46.96	35.95
x1 = 0.9031	1123.01	1119.13	1632.1	1617	–	–
x1 = 0.9181	1123.08	1119.2	1631.3	1616.2	–	–
x1 = 0.9344	1123.16	1119.28	1630.5	1615.4	–	–
x1 = 0.9489	1123.57	1119.68	–	–	47.64	36.46
x1 = 0.9569	1123.28	1119.39	1629.2	1614.1	–	–
x1 = 0.9782	1123.37	1119.48	1628.1	1612.9	–	–
x1 = 1	1123.48	1119.59	1626.8	1611.6	48.06	36.88
